Legend:
MHV [1] = assay type: in vivo, mice
IAV = test system: IAV; set-up: species or system mice; conditions: mouse, in vivo
MHV [2] = assay type: in vivo; conditions: IFNar knockout mice infected with MHV, paquinimod nasal drop group, FIG. 17
SARS-CoV2 = SARS-CoV2 infection of human ACE2 mice, paquinimod nasal drop group versus control; assay type: in vivo
[3] = MHV-infected lung tissues of IFNar knockout mice, FIG. 18
[4] = SARS-CoV2 pneumonia animal model

CCc1cccc2c1c(O)c(C(=O)N(CC)c1ccccc1)c(=O)n2C [paquinimod]
inflammation and lung damage caused by inflammation (MHV [1]; [3]): reducing inflammation and lung damage
lung S100A8 gene expression (MHV [1]; [3]): not up-regulated
activation of neutrophils caused by coronavirus infection (MHV [1]; coronavirus-infected mice): inhibit the activation of neutrophils
replication of MHV (MHV [1]; lung tissues of IFNar knockout mice, FIG. 18): inhibiting replication
survival rate (IAV): no significant difference
survival rate (MHV [2]): increased survival rate
replication of SARS-CoV-2 (SARS-CoV2; FIG. 18): inhibiting replication
inflammation level (SARS-CoV2; [4]): decreasing the inflammation level
virus titer in tissues (SARS-CoV2; [4]): inhibits the virus titer in tissues
